Source: patent US10988444B2, “Antimicrobial compounds” (NEWSOUTH INNOVATIONS PTY LIMITED, priority 2016, dated 2021)
In brackets after ≈: the same amount, converted by molar mass. Several values for one entry are separate records, joined by “and”; a condition that tells them apart may be missing. Equal values may be shown once. Read-outs that look alike come from different tables or passages of the source.

Experiments:
S. aureus [1] = experiment: Biofilm disruption assay, established biofilms, crystal violet staining; assay type: cell-based; details: 250 μM, 24 h treatment
Method: (§1) Bacterial cultures were grown in TSB media for overnight at 37° C. with shaking at 150 r.p.m. Cultures were diluted (1:20) in YPD medium and 200 μl aliquots were dispensed to flat bottom 96-well plate wells (Sarstedt Australia). Cultures were supplemented with varying concentrations of synthetic compounds dissolved in water. For pre-established biofilm assay, cultures were grown in 96-well plate wells overnight prior to supplementation with synthetic compounds. Control cultures were supplemented with an equal amount of DMSO. Plates were sealed with self-adhesive microplate sealers (TopSeal-A, PerkinElmer) to allow air diffusion and to prevent condensation. Cultures were incubated overnight at 37° C. with shaking at 150 r.p.m. Biofilms adhered on polystyrene substratum were quantified by crystal violet staining as described previously (see Wiegand, I.; Hilpert, K.; Hancock, R. E. W. Nat. Protocols 2008, 3 (2), 163-175). All cultures were prepared in triplicates. Error bars represent the standard error of three independent experiments (n=3).
(§2) The biofilm disruption activities of the compounds were investigated using crystal violet staining according to a previously published protocol (G. A. O'Toole, J Vis Exp, 2011, (47), pii: 2437, DOI: 10.3791/2437, 2437). The ability of compounds (34-38, 51-56, 61, 62, 65 and 66) to disrupt the established biofilms of the Gram-positive bacteria S. aureus and the Gram-negative bacteria Pseudomonas aeruginosa, Serratia marcescens and E. coli, was determined at a concentration of 250 μM. In this assay, bacterial cultures were grown on a polystyrene substratum overnight prior to treatment with the compounds. In addition, the ability of these compounds to inhibit the formation of biofilms of P. aeruginosa and S. marcescens was also investigated at 250 μM, whereby the bacterial cultures were grown in the presence of test compounds.

[2] = system: Pseudomonas aeruginosa (PAO1); experiment: as above; assay type: cell-based; details: 250 μM, 24 h treatment
Method: as §1, §2

S. marcescens [3] = experiment: as above; assay type: cell-based, Serratia marcescens; details: 250 μM, 24 h treatment
Method: as §1, §2

S. marcescens [4] = experiment: Biofilm inhibition assay (inhibition of biofilm formation), crystal violet staining; assay type: cell-based; details: Serratia marcescens, 24 h
Method: as §1, with “no-established” for “pre-established”, “along” for “prior to supplementation”, “water.” for “DMSO.”
as §2

S. aureus [5] = experiment: Minimal inhibitory concentration (MIC) determination, Example 1; assay type: cell-based; details: Staphylococcus aureus
Method: (§3) The antibacterial activity of the compounds was determined by the determination of minimal inhibitory concentration (MIC) by following the previously published protocol (see Nizalapur, S.; Ho, K. K.; Kimyon, Ö.; Yee, E.; Berry, T.; Manefield, M.; Cranfield, C. G.; Willcox, M.; Black, D. S.; Kumar, N. Org. Biomol. Chem. 2016, 14, 3623). The compounds to be tested were dissolved and diluted in autoclaved Millipore water. A single colony of bacteria was cultured overnight in TSB at 37° C. The resulting bacteria were collected by centrifugation and re-suspended in the same volume of MHB twice. Optical density (OD) of the resulting culture was adjusted to 0.1 at 600 nm (10^8 CFU/mL) in MHB, and the adjusted culture was further diluted to […] in MHB. Then, 100 μL of the bacterial solution was added to wells of a 96-well plate containing 100 μL of serially diluted compound. Two controls were also prepared: one containing 100 μL of MHB media and 100 μL sterile water, and the other containing 100 μL of bacterial solution and 100 μL sterile water. […] The MIC value was determined as the lowest concentration of compound that inhibited the complete growth of the bacteria (i.e. OD similar to that of the control having no bacteria). Each experiment was performed in triplicate and was repeated in three independent experiments.
(§4) The results of the MIC assay are given below in Table 1.

E. coli [6] = experiment: as above; assay type: cell-based; details: 24 h, MHB, 37° C.; for MIC: Escherichia coli, read-out: Minimum inhibitory concentration (MIC) E. coli
Method: as §3, §4

E. coli [7] = experiment: Biofilm disruption assay, established biofilms, crystal violet staining; assay type: cell-based; details: 250 μM, 24 h treatment
Method: as §1, §2

[8] = system: MRC-5 normal human lung fibroblasts; experiment: Toxicity assay, Alamar blue, Example 1; assay type: cell-based; details: for IC50: Homo sapiens, MRC5, 72 h incubation, read-out: toxicity (IC50) against MRC-5 human fibroblast cells
Method: The normal human lung fibroblasts MRC-5 were cultured in minimal essential medium (MEM, Invitrogen) supplemented with 10% foetal calf serum (FCS), 1% L-glutamine-penicillin-streptomycin, 2% sodium bicarbonate, 1% non-essential amino acids (NEAA) and 1% sodium pyruvate. The cell line was maintained at 37° C. in 5% CO2 as an adherent monolayer and was passaged upon reaching confluence by standard cell culture techniques. MRC-5 cells were seeded at 2×10^4 cells per well in 96-well plates to ensure full confluence (quiescence). Cells were treated 24 h after seeding with 0.1 to 1000 μM of compounds. After 72 h drug incubation, the treated media was replaced with fresh media containing 10% Alamar blue and the cells were incubated for another 6 h. The metabolic activity was detected by spectrophotometric analysis by assessing the absorbance of Alamar blue as previously described by Pasquier et. al (see Pasquier, E.; Ciccolini, J.; Carre, M.; Giacometti, S.; Fanciullino, R.; Pouchy, C.; Montero, M.-P.; Serdjebi, C.; Kavallaris, M.; André, N. Oncotarget 2011, 2, 797).
Cell proliferation was determined and expressed as a percentage of untreated control cells. The determination of IC50 values was performed using GraphPad Prism 6 (San Diego, Calif., USA).
To further evaluate the utility of these novel guanylated peptidomimetics for medical applications, it was essential to determine their specificity towards bacterial cells over mammalian cells.

[9] = system: MRC-5 normal human lung fibroblasts; experiment: Cytotoxicity assay, Alamar blue, Example 2; assay type: cell-based; details: for IC50: Homo sapiens, MRC5, MRC-5, concentration which killed half of the cells
Method: The in vitro toxicity of the compounds (24a, 38b, 42d, 43d) was determined against MRC-5 normal human lung fibroblasts using the Alamar blue assay (see O'Brien, J.; Wilson, I.; Orton, T.; Pognan, F. Eur. J. Biochem. 2000, 267 (17), 5421-5426). A dose-response curve for each compound was generated to determine the IC50 values (concentration of compound which killed half of the cells) and the IC50 values were then used to determine the therapeutic window (IC50 value divided by MIC value) and specificity of the compounds (Table 3).

[10] = Membrane conduction, tBLMs containing 30% POPG, Example 2; details: negatively charged lipid, 50 μM, preliminary study
Excerpt: Tethered bilayer lipid membranes (tBLMs) associated with alternating current electrical impedance spectroscopy techniques were employed to determine whether the compounds (24a, 38b, 42d, 43d) are lytic to cell membranes. Sparsely tethered tBLMs containing 30% palmitoyl-oleoyl-phosphati-dylglycerol (POPG) were created using the solvent-exchange technique described by Cranfield et al. in 2015 (see Cranfield, C. G.; Bettler, T.; Cornell, B. Langmuir 2015, 31 (1), 292-298). The tBLM conduction responses of compounds (24a, 38b, 42d, 43d) were compared to that of LL-37, a cathelicidin AMP that is known to permeabilise membranes.

S. aureus (SA38) = experiment: Minimal inhibitory concentration (MIC) assay, Example 2; assay type: cell-based; details: Staphylococcus aureus, TSB, 37° C., 24 h
Method: A single colony of bacteria was cultured overnight in TSB at 37° C. The resulting bacterial culture was collected by centrifugation and re-suspended in TSB twice. The optical density (OD) of the resulting culture was adjusted to OD600=0.1 in TSB (equivalent to 10^8 colony forming unit (CFU)/mL bacteria), and was further diluted to 10^5 CFU/mL in TSB. 100 μL of the bacterial solution was then added to wells of a 96-well plate containing 100 μL serially diluted compound, with final concentration ranging from 8-250 μM. The plates were then incubated at 37° C. for 24 h and the data was recorded by measuring the OD value at 600 nm using a Wallac Victor (Perkin-Elmer) microplate reader. […] Each experiment was performed in triplicate and was repeated in two independent experiments. The results of the MIC assay are given below in Table 2.

[11] = MHB, 37° C., 24 h, read-out: Minimum inhibitory concentration (MIC) S. aureus
[12] = MIC in μM as compared with MRC-5 IC50, read-out: equivalent MIC values

Structure (SMILES)	MIC (S. aureus [5]; [11]) [µg/mL]	MIC (E. coli [6]) [µg/mL]	MIC (S. aureus (SA38)) [µM]	inhibition at 250 µM (S. marcescens [4]) [%]	MIC (S. aureus [5]; [12]) [µM]	IC50 [9] [µM]	tBLM conduction response [10]	also measured
Cl.N=C(N)NCCCC[C@H](NC(=O)C(=O)c1cc(F)ccc1NC(=O)c1ccc2ccccc2c1)C(=O)O [Compound 53, N^2-(2-(2-(2-naphthamido)-5-fluorophenyl)-2-oxoacetyl)-N^6-carbamimidoyllysine hydrochloride]	108	67		67				disruption of established biofilms of S. aureus (S. aureus [1]): 46%; disruption of established biofilms of P. aeruginosa [2]: 42%; disruption of established biofilms of S. marcescens (S. marcescens [3]): 40%; Minimum inhibitory concentration (MIC) E. coli (E. coli [6]; hydrochloride): 68 µg/mL
Cl.N=C(N)NCCCNC(=O)C(=O)c1cc(Cl)ccc1NC(=O)c1ccc2ccccc2c1 [Compound 36, N-(4-Chloro-2-(2-((3-guanidinopropyl)amino)-2-oxoacetyl)phenyl)-2-naphthamide hydrochloride]	8	> 110		71	16			disruption of established biofilms of E. coli (E. coli [7]): 43%; IC50 [8]: 224 µM
CCCCCCCCS(=O)(=O)Nc1ccc(Br)cc1C(=O)C(=O)NCCCNC(=N)N.Cl [Compound 43d, 2-(5-Bromo-2-(octylsulfonamido)phenyl)-N-(3-guanidinopropyl)-2-oxoacetamide hydrochloride]			12			178	showed conduction responses	
CCCCCCCCS(=O)(=O)Nc1ccccc1C(=O)C(=O)NCCCNC(=N)N.Cl [Compound 42d, N-(3-Guanidinopropyl)-2-(2-(octylsulfonamido)phenyl)-2-oxoacetamide hydrochloride]			47			373	showed conduction responses	
CCCCCCCCS(=O)(=O)Nc1ccc(Br)cc1C(=O)C(=O)NCCN(C)C.Cl [Compound 38b, 2-(2-(5-Bromo-2-(octylsulfonamido)phenyl)-2-oxoacetamido)-N,N-dimethylethan-1-aminium chloride]			63			75.5	showed conduction responses	
CCCCCCCCS(=O)(=O)Nc1ccc(Br)cc1C(=O)C(=O)NCCCN(C)C [Compound 24a, 2-(5-Bromo-2-(octylsulfonamido)phenyl)-N-(3-(dimethylamino)propyl)-2-oxoacetamide]			47 (≈ 23.7 µg/mL)			37.4	showed conduction responses	toxicity to human cells ([9]; MRC-5): high level of toxicity to human cells

Second part, led by results:

MIC (S. aureus [5]; [11]) [µg/mL]	MIC (E. coli [6]) [µg/mL]	MIC (S. aureus (SA38)) [µM]	Structure (SMILES)	inhibition at 250 µM (S. marcescens [4]) [%]	MIC (S. aureus [5]; [12]) [µM]	IC50 [9] [µM]	tBLM conduction response [10]	also measured
6	> 110		Cl.N=C(N)NCCCNC(=O)C(=O)c1cc(Br)ccc1NC(=O)c1ccc2ccccc2c1 [Compound 35, N-(4-Bromo-2-(2-((3-guanidinopropyl)amino)-2-oxoacetyl)phenyl)-2-naphthamide hydrochloride]		12.5			disruption of established biofilms of E. coli (E. coli [7]): 46%; disruption of established biofilms of S. marcescens (S. marcescens [3]): 49%; IC50 [8]: 174 µM
10	50		COC(=O)[C@H](CCCNC(=N)N)NC(=O)[C@H](CCCNC(=N)N)NC(=O)C(=O)c1cc(Br)ccc1NC(=O)c1ccc2ccccc2c1.Cl.Cl [Compound 66, Methyl (2-(2-(2-naphthamido)-5-bromophenyl)-2-oxoacetyl)arginylargininate dihydrochloride]	69	15.7			disruption of established biofilms of P. aeruginosa ([2]; dihydrochloride): 54% and 55%; toxicity (IC50) against MRC-5 human fibroblast cells ([8]; 72 h incubation): not reaching a 50% reduction of cell viability at the highest tested dose
